Laboratory results from ChEMBL document CHEMBL1157750, “Synthesis and evaluation of 17alpha-arylestradiols as ligands for estrogen receptor alpha and beta” (J Med Chem, 2010).
Several values for one entry are separate records, joined by “and”; a condition that tells them apart may be missing. Identical values can stand only once. Activity calls are given as the source filed them. The rule behind the calls is not given here.

What was measured:
MCF7 [1] = test: Estrogenic activity in human MCF7 cells assessed as induction of cell proliferation at 0.001 to 1 nM after 6 days by fluorescence assay; type: functional, cell-based
MCF7 [2] = test: Estrogenic activity in human MCF7 cells assessed as induction of cell proliferation at 100 nM after 6 days by fluorescence assay; type: functional, cell-based
Estrogen receptor [3] = target: T1, Estrogen receptor (Homo sapiens, UniProt P03372)
T1 sequence (P03372 whole entry): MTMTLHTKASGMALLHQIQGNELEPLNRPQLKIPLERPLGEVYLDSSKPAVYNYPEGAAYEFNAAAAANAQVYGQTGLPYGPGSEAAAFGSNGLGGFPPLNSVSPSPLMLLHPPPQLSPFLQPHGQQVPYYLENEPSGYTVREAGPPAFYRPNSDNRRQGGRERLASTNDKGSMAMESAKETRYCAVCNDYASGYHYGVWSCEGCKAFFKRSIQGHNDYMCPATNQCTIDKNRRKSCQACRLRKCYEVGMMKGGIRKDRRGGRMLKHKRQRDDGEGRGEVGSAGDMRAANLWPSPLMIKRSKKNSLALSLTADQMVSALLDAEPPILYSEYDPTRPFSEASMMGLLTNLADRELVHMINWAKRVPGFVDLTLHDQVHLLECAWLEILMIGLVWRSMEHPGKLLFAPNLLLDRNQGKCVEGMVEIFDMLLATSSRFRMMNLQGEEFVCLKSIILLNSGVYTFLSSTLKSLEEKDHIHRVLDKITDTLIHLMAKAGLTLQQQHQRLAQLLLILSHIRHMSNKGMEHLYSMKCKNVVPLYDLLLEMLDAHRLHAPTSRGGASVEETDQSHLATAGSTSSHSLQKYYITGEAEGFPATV
Description: Binding affinity to ERalpha by fluorescence polarization-based competitive binding assay

MCF7 [4] = test: Estrogenic activity in human MCF7 cells assessed as induction of cell proliferation at 1 nM after 6 days by fluorescence assay; type: functional, cell-based
Estrogen receptor [5] = target: T1, Estrogen receptor; remark: listed apart in the source
Description: Transactivation of human ERalpha expressed in HEK293 cells after 18 hrs by luciferase reporter gene assay

Estrogen receptor beta [6] = target: T2, Estrogen receptor beta (Homo sapiens, UniProt Q92731)
Description: Transactivation of human ERbeta expressed in HEK293 cells after 18 hrs by luciferase reporter gene assay

Estrogen receptor beta [7] = target: T2, Estrogen receptor beta; remark: listed apart in the source
Description: Binding affinity to ERbeta by fluorescence polarization-based competitive binding assay

Homo sapiens = species on record: Homo sapiens; test: Selectivity ratio of EC50 for human ERbeta to EC50 for human ERalpha

T2 sequence (Q92731 whole entry): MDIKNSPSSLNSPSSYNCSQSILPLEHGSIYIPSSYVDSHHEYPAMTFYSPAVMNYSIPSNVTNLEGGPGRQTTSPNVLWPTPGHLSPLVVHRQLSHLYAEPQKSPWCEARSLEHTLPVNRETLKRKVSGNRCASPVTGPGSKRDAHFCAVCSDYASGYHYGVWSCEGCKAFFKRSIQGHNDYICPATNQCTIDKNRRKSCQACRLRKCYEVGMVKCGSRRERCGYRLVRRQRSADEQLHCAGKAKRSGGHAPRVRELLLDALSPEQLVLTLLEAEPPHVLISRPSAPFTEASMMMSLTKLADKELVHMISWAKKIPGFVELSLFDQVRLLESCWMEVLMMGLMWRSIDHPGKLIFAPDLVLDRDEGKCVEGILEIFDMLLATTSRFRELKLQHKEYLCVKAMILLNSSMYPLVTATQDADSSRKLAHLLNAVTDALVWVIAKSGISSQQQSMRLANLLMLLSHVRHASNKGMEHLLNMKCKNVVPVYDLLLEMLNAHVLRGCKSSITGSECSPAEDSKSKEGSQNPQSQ

With `C[C@]12CC[C@@H]3c4ccc(O)cc4CC[C@H]3[C@@H]1CC[C@@]2(O)c1ccc2c(c1)COC2` the Activity (MCF7 [1]) was “Active” and the Activity (MCF7 [2]) was “Active”.
For `CC(=O)C1(C(C)=O)Cc2ccc([C@]3(O)CC[C@H]4[C@@H]5CCc6cc(O)ccc6[C@H]5CC[C@@]43C)cc2C1`, the Activity (MCF7 [2]) was “Active”, the IC50 (Estrogen receptor [3]) was 243 nM and the Activity (MCF7 [4]) was “Active”. The EC50 (Estrogen receptor [5]) was 336 nM, the EC50 (Estrogen receptor beta [6]) was 221 nM and the IC50 (Estrogen receptor beta [7]) was 254 nM.
For `CCOC(=O)C1(C(C)=O)Cc2ccc([C@]3(O)CC[C@H]4[C@@H]5CCc6cc(O)ccc6[C@H]5CC[C@@]43C)cc2C1` (some centres not stated), the Activity (MCF7 [1]) was “Active”, the Activity (MCF7 [2]) was “Active” and the EC50 (Estrogen receptor beta [6]) was 34.6 nM. It also gave an IC50 (Estrogen receptor beta [7]) of 319 nM.
For `CCOC(=O)C1(C#N)Cc2ccc([C@]3(O)CC[C@H]4[C@@H]5CCc6cc(O)ccc6[C@H]5CC[C@@]43C)cc2C1` (some centres not stated), the Activity (MCF7 [1]) was “Active”, the Activity (MCF7 [2]) was “Active” and the EC50 (Estrogen receptor beta [6]) was 22.7 nM. The IC50 (Estrogen receptor beta [7]) was 53.6 nM.
`Cc1ccc(S(=O)(=O)N2Cc3ccc([C@]4(O)CC[C@H]5[C@@H]6CCc7cc(O)ccc7[C@H]6CC[C@@]54C)cc3C2)cc1` was tested, and the Activity (MCF7 [1]) was “Active”, the Activity (MCF7 [2]) was “Active” and the EC50 (Estrogen receptor beta [6]) was 242 nM. For the same compound, the IC50 (Estrogen receptor beta [7]) was 500 nM.
With `CCOC(=O)C1(C(=O)OCC)Cc2ccc([C@]3(O)CC[C@H]4[C@@H]5CCc6cc(O)ccc6[C@H]5CC[C@@]43C)cc2C1` the Activity (MCF7 [1]) was “Active”, the Activity (MCF7 [2]) was “Active” and the IC50 (Estrogen receptor [3]) was 492 nM. The Ratio EC50 (Homo sapiens) was 13, the EC50 (Estrogen receptor [5]) was 14.1 nM and the EC50 (Estrogen receptor beta [6]) was 175 nM and 174 nM. It also gave an IC50 (Estrogen receptor beta [7]) of 1080 nM.
